In patent US20140038205A1, “METHODS AND COMPOSITIONS RELATING TO COAGULATION ASSAYS” (Precision BioLogic Inc., priority 2011, published 2014):

Legend:
[1] = relative to heparin; cited from earlier work
PF4 = target: T1, PF4 (Homo sapiens, UniProt P02776); settings: rank: heparin>heparan sulfate>dermatan sulfate>chondroitin-6-sulfate>chondroitin-4-sulfate; cited from earlier work
T1 sequence (P02776 32-101): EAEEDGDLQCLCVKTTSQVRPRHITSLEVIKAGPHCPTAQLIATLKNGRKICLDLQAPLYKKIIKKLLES

non-heparinized plasma = assay: aPTT assay of non-heparinized plasma; type: biochemical; settings: FIG. 2 and FIG. 3
Description: (§1) In the aPTT (also referred to as “partial thromboplastin time” or “PTT”) assay, the sample is then mixed with a phospholipid, an activator such as silica, celite, kaolin or ellagic acid, and calcium. The contact activator is used to stimulate production of Factor XIIa. The phospholipids form complexes that activate Factor X and prothrombin. Calcium is used to reverse the anticoagulant effects of the oxalate or citrate. The mixture is then allowed to form a thrombus (clot) and the time to do so is measured. An abnormal or prolonged aPTT time will vary depending on the population and local normal ranges should be known. However, as a general guideline, values over 39 seconds may be considered abnormal and prolonged according to the invention, and such samples may be candidates for further analysis using the methods of the invention.
The PF4-based reagent may be used for the in vitro neutralization of heparin in samples as assessed by the aPTT assay. To ensure an accurate aPTT result the reagent must act specifically to reverse only anticoagulant activity associated with heparin, and otherwise have no effect on the plasma clotting time. […] This phenomenon might be due to PF4-induced stimulation of the thrombin-mediated cleavage of protein C to generate the potent anticoagulant activated protein C (APC). APC acts to inactivate coagulation Factors Va and VIIIa by proteolysis. […]

[2] = system: unfractionated heparin (UFH); assay: aPTT assay, neutralization of heparin in heparinized plasma; type: biochemical; settings: plasma containing up to 2 U/mL of UFH; FIG. 1 and FIG. 4
Description: PF4 tetramers form a cylindrical structure displaying an equatorial ring of positively charged amino acids around which the polyanionic heparin molecules wrap and bind with exceptionally high affinity. The formation of a PF4-heparin complex strongly impairs the capacity of heparin to bind AT and stimulate its anticoagulant activity.
as §1
The PF4-based reagent may be used for the in vitro neutralization of heparin in samples as assessed by the aPTT assay. […]

Substance | anti-coagulant potency [1] | relative binding affinity for PF4 (PF4) | effect on the aPTT of non-heparinized plasma (non-heparinized plasma) | neutralization of heparin anticoagulant activity (aPTT) [2]
chondroitin-4-sulfate | much lower than that of heparin | low relative affinity for PF4 |  | 
platelet factor 4 [PF4] |  |  | gradual prolongation of the aPTT | fully corrected to baseline
